Publication PMC10142904, “Identification of Novel Cyclooxygenase-1 Selective Inhibitors of Thiadiazole-Based Scaffold as Potent Anti-Inflammatory Agents with Safety Gastric and Cytotoxic Profile” (Molecules, 2023)
Several values for one entry are separate records, joined by “and”; a condition that tells them apart may be missing. Equal values may be shown once. Read-outs that look alike come from different tables or passages of the source.

Columns and labels:
[1] = tested on: carrageenan-induced mouse paw edema; assay: Carrageenan-induced mouse paw edema; type: in vivo; conditions: i.p., 0.028 mmol/kg, paw weight after 3.5 h; for inhibition in vivo at 28 µmol/kg: Mus musculus, ip, 3.5 h
Experimental: All tested compounds were administrated through i.p. with a molar concentration of 0.028 mmol/kg.
The animals were weighed and then randomly divided into control, standard and test groups with each group including 10 mice. […] Edema was induced by injecting 0.1 mL of 1% aqueous solution of carrageenan subcutaneously to the sub-plantar region of the right hind paw, utilizing the left paw as control. The assessed derivatives, in suspended water/Tween-80, were injected i.p. […] After 3.5 h, the hind paws were excised and were weighed separately. The edema paws were estimated as paw weight increase.

[2] = cited from earlier work
soybean LOX = tested on: T1, soybean LOX; assay: LOX activity inhibition; type: biochemical
T1 construct: purchased Sigma (St. Louis, MO, USA)
From the text: κ-Carrageenan and lipoxygenase type I-B from soybean were obtained from Sigma (St. Louis, MO, USA). COX inhibition was studied utilizing the kit of “COX Inhibitor Screening Assay” (Cayman Chemical Co., Ann Arbor, MI, USA). In vivo tests, male and female (23–30 g) mice R”’ were stored in the Centre of the School of Veterinary Medicine (EL54-BIO42), (Aristotle University of Thessaloniki, Thessaloniki, Greek), licensed by the state official veterinary authorities (presidential degree 56/2013, in standardization with the European Directive 2010/63/EEC). The experimental protocols were approved by the Committee of Animal Ethics of the Prefecture of Central Macedonia (no. 270079/2500).
The reaction mixture contained the final concentration (300 µΜ) of the test derivatives, dissolved in absolute ethanol (10–300 µM), or the solvent (control), soybean LOX, dissolved in 0.9% NaCl solution (250 u/mL) and sodium linoleate (100 µM), in Tris–HCl buffer, pH 9.0. The reaction was monitored for 7 min at a temperature of 28 °C, noting the absorbance (234 nm) of a conjugated diene structure, following the formation of 13-hydroperoxy-linoleic acid. The performance of the assay was validated utilizing NDGA as a standard. For the evaluation of the inhibition type, the above experiments were repeated, utilizing sodium linoleate (1 mM), which is greater than the saturating substrate concentration.

gastric mucosa = assay: Ulcerogenic activity (gastric lesions after oral dosing); type: in vivo; conditions: mice, oral 0.028 mmol/kg, 3 successive days, N = 5
Experimental: Gastric toxicity was conducted through oral administration of 0.028 mmol/kg of the tested derivatives on mice, and the extent of lesions of the gastric mucosa was measured. […] This study clearly indicated the superiority of our compounds over indomethacin concerning ulcerogenic liability.
The ulcerogenicity effect of compounds was assessed on male mice by following the reported protocol. Male mice weighing 22–25 g were separated into six groups (five animals in each group). […] The placebo control group was administrated saline with few drops of Tween-80. The animals were sacrificed 4 h after the last dose, and the stomachs were inspected for stomach lesions. The scoring of ulcerogenicity was expressed in terms of: average number of ulcers per stomach, percentage incidence of ulcers and percent incidence of ulcer divided by 10. The ulcer index was calculated using the sum of the three above values.

ovine COX-1 = target: T2, ovine COX-1 (Ovis aries, UniProt P05979); assay: COX-1 inhibition (Cayman COX Inhibitor Screening Assay); type: biochemical; conditions: for IC50: read-out: COX-1 Inhibition, IC50 (μΜ)
T2 construct: purchased Cayman Chemical Co., Ann Arbor, MI, USA
T2 sequence (P05979 25-600): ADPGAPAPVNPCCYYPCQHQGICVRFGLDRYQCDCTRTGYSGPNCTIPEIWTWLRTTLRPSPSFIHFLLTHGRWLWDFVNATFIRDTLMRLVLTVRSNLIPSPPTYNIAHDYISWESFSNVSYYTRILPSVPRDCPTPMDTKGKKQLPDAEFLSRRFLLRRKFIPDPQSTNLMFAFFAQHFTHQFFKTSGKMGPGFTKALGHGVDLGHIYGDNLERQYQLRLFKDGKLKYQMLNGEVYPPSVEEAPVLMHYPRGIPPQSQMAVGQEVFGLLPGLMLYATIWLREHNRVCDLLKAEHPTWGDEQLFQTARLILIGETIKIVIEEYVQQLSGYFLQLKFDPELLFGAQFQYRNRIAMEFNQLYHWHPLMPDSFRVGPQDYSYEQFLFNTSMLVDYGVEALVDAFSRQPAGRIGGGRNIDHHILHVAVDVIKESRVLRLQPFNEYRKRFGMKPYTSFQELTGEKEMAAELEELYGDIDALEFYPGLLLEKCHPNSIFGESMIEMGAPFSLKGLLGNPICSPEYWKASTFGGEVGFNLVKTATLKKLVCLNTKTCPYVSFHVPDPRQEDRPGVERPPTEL
Experimental: (§1) κ-Carrageenan and lipoxygenase type I-B from soybean were obtained from Sigma (St. Louis, MO, USA). COX inhibition was studied utilizing the kit of “COX Inhibitor Screening Assay” (Cayman Chemical Co., Ann Arbor, MI, USA).
(§2) The action of the tested derivatives on COX-1 and COX-2 inhibition was analyzed utilizing a commercial kit furnished by Cayman (Cayman Chemical Co., Ann Arbor, MI, USA) and by applying the instructions of the manufacturer. The kit utilizes human recombinant COX-2 and ovine COX-1 enzymes. […] The assay analyzes PGF2a produced by SnCl2 reduction of COX-derived PGH2.

human recombinant COX-2 = tested on: T3, human recombinant COX-2; assay: COX-2 inhibition (Cayman COX Inhibitor Screening Assay); type: biochemical
T3 construct: purchased Cayman Chemical Co., Ann Arbor, MI, USA
Experimental: as §1, §2

MRC-5 cells = assay: Cytotoxicity / cell proliferation in MRC-5 cells; type: cell-based, human; conditions: MRC-5 cells, 0.1, 1 and 10 μM, 48 h
Experimental: The evaluation of cellular cytotoxicity of derivatives 3, 4, 10, 11 and 14 in normal human MRC-5 cells was accomplished at three different concentrations in cell culture, i.e., 0.1, 1 and 10 μM (Figure 7). No substantial effect on cell proliferation after 48 h of exposure was found in cultures, as the growth was ≥98% for all assessed agents by comparison with the control (untreated cells) (Figure 7).
The MRC-5 human cell line from lung fibroblast was stored and then utilized in our laboratory in a conventional manner (passage < 40). MRC-5 cells were cultured (using a humidified atmosphere enclosing 5% CO2 at 37 °C) in medium DMEM with 10% v/v FBS, 1% PS penicillin–streptomycin. The assessed derivatives were dissolved in dimethyl sulfoxide and stored at a temperature of 4 degrees centigrade. For cytotoxicity assessment, cells were seeded in 96-well culture plates at 5 × 10^4 cells/mL (initial density) and permitted to attach for at least 3 h before adding the compounds at increasing concentrations (0.1, 1 and 10 µM). […] To evaluate the cytotoxicity of each derivative, the cells were given an additional 48 h to grow before estimating their number in culture utilizing the Neubauer counting chamber (microscope observation). In every treated culture, cell growth was expressed and reported as the percentage of untreated growing cells. GraphPad Prism 6.0 program was utilized in order to accomplish statistical t-test analysis.
Figure 7 Cell proliferation assessment of MRC-5 cell lines subjected to different derivatives in cell culture. MRC-5 cell lines grown in culture were incubated separately with each of the derivatives at concentrations of 0.1, 1 and 10 μM for 48 h. The cell number was analyzed in cell cultures with microscopic techniques (Neubauer counting chamber), as reported in “Methods” and expressed as % of the proliferation of cultures involving control untreated cells. […] The diagram illustrated above and the t-test statistical analysis were performed utilizing the GraphPad Prism 6.0 program. No significant statistical difference between the control untreated culture cells with each tested derivative was attained.

COc1ccc(/C=C2\S/C(=N/c3nnc(C45CC6CC(CC(C6)C4)C5)s3)NC2=O)cc1 [Compound 6]
inhibition in vivo at 28 µmol/kg [1]: 37 ± 1.6%

CN(C)c1ccc(/C=C2\S/C(=N/c3nnc(C45CC6CC(CC(C6)C4)C5)s3)NC2=O)cc1 [Compound 7]
inhibition in vivo at 28 µmol/kg [1]: 43.6 ± 1.3%

CC(C)Cc1ccc([C@H](CF)C(=O)O)cc1 [(S)-F-ibuprofen]
Gastric damage (in words) [2]: low gastric damage

COc1ccc(-c2noc(CC(=O)O)c2-c2ccc(OC)cc2)cc1 [Mofezolac]
Ulcer index ([2]; dose of 10 mg): 0.98

O=C1N/C(=N\c2nnc(C34CC5CC(CC(C5)C3)C4)s2)S/C1=C\c1cccc([N+](=O)[O-])c1 [Compound 9]
inhibition in vivo at 28 µmol/kg [1]: 41.9 ± 1.8%

COc1ccc(-c2nc(NCC(=O)O)sc2-c2ccc(OC)cc2)cc1 [diarylthiazole]
Gastric damage (in words) [2]: low gastric damage

COc1ccc2c(c1)c(CC(=O)O)c(C)n2C1CCN(C)CC1 [N-methylpiperidinylindole]
Gastric toxicity (in words) ([2]; in vivo): devoid of any gastric toxicity

O=C1N/C(=N\c2nnc(C34CC5CC(CC(C5)C3)C4)s2)S/C1=C\c1ccccc1[N+](=O)[O-] [Compound 8]
inhibition in vivo at 28 µmol/kg [1]: 37 ± 1.4%

O=C1N/C(=N\c2nnc(C34CC5CC(CC(C5)C3)C4)s2)S/C1=C\c1ccc(F)cc1 [Compound 2]
inhibition in vivo at 28 µmol/kg [1]: 39.7 ± 1.6%

COc1cc(/C=C2\S/C(=N/c3nnc(C45CC6CC(CC(C6)C4)C5)s3)NC2=O)ccc1O [Compound 15]
inhibition in vivo at 28 µmol/kg [1]: 21.4% | Edema Inhibition, (%) [1]: 21.4 ± 2.1 %

O=C1NC(=Nc2nnc(C34CC5CC(CC(C5)C3)C4)s2)SC1=Cc1c(Cl)cccc1Cl [Compound 14]
Enzymatic inhibition against LOX (in words) (soybean LOX): modest enzymatic inhibition | LOX Inhibition (%) 100 μΜ (soybean LOX): 34.5 ± 1.6 % | Number of Animals with Ulcer (gastric mucosa): nil | inhibition in vivo at 28 µmol/kg [1]: 60 ± 1.9% | COX-1 Inhibition, Inhibition (%) 200 μΜ (ovine COX-1): 100% | IC50 (ovine COX-1): 9.62 ± 0.5 µM | COX-2 Inhibition, Inhibition (%) 200 μΜ (human recombinant COX-2): 0% | Cell growth by comparison with the control (untreated cells) (MRC-5 cells): ≥ 98%

O=C1N/C(=N\c2nnc(C34CC5CC(CC(C5)C3)C4)s2)S/C1=C\c1c(F)cccc1F [Compound 11]
inhibition in vivo at 28 µmol/kg [1]: 60% | Cell growth by comparison with the control (untreated cells) (MRC-5 cells): ≥ 98%

COc1ccc(-c2nc(C(=O)N3CCN(C)CC3)sc2-c2ccc(OC)cc2)cc1 [FR122047]
Gastric toxicity (in words) [2]: devoid of any gastric toxicity

O=C1N/C(=N\c2nnc(C34CC5CC(CC(C5)C3)C4)s2)S/C1=C\c1ccc(Cl)cc1Cl [Compound 13]
inhibition in vivo at 28 µmol/kg [1]: 36 ± 1.8%

COc1ccc2c(c1)c(CC(=O)O)c(C)n2C(=O)c1ccc(Cl)cc1 [Indomethacin, reference compound]
Number of Animals with Ulcer (gastric mucosa): 4/5 | Number of Animals with Ulcer (gastric mucosa; listed as indomethacin): four out of five

O=C1N/C(=N\c2nnc(C34CC5CC(CC(C5)C3)C4)s2)S/C1=C\c1cccc(Cl)c1Cl [Compound 12]
inhibition in vivo at 28 µmol/kg [1]: 34.5 ± 1.1%

Cc1ccc(/C=C2\S/C(=N/c3nnc(C45CC6CC(CC(C6)C4)C5)s3)NC2=O)cc1 [Compound 5]
inhibition in vivo at 28 µmol/kg [1]: 47.2 ± 1.2%

O=C1NC(=Nc2nnc(C34CC5CC(CC(C5)C3)C4)s2)SC1=Cc1ccc(Br)cc1 [Compound 3]
Enzymatic inhibition against LOX (in words) (soybean LOX): modest enzymatic inhibition | LOX Inhibition (%) 100 μΜ (soybean LOX): 42.9 ± 1.9 % | Number of Animals with Ulcer (gastric mucosa): nil | inhibition in vivo at 28 µmol/kg [1]: 62% | Edema Inhibition, (%) [1]: 62.0 ± 1.8 % | COX-1 Inhibition, Inhibition (%) 200 μΜ (ovine COX-1): 100% | IC50 (ovine COX-1): 1.08 µM and 1.12 µM | COX-2 Inhibition, Inhibition (%) 200 μΜ (human recombinant COX-2): 0% | Cell growth by comparison with the control (untreated cells) (MRC-5 cells): ≥ 98%

O=C1NC(=Nc2nnc(C34CC5CC(CC(C5)C3)C4)s2)SC1=Cc1cccc(F)c1F [Compound 10, 2-{[5-(Adamantan-1-yl)-1,3,4-thiadiazol-2-yl]-imino}-5-(2,3-difluorobenzylidene)-1,3-thiazolidin-4-one]
inhibition in vivo at 28 µmol/kg [1]: 55.8% | Edema Inhibition, (%) [1]: 55.8 ± 1.9 % | Cell growth by comparison with the control (untreated cells) (MRC-5 cells): ≥ 98%

Nc1ccc(NC(=O)c2ccc(C(F)(F)F)cc2)cc1 [TFAP]
Gastric toxicity (in words) ([2]; in vivo): devoid of any gastric toxicity

O=C1N/C(=N\c2nnc(C34CC5CC(CC(C5)C3)C4)s2)S/C1=C\c1ccccc1 [Compound 1]
inhibition in vivo at 28 µmol/kg [1]: 40.8 ± 1.9%

COc1ccc(-n2nc(C(F)(F)F)cc2-c2ccc(Cl)cc2)cc1 [SC-560]
Gastric toxicity (in words) [2]: devoid of any gastric toxicity

O=C1NC(=Nc2nnc(C34CC5CC(CC(C5)C3)C4)s2)SC1=Cc1ccc([N+](=O)[O-])cc1 [Compound 4]
Enzymatic inhibition against LOX (in words) (soybean LOX): modest enzymatic inhibition | LOX Inhibition (%) 100 μΜ (soybean LOX): 39.8 ± 181 % | Number of Animals with Ulcer (gastric mucosa): nil | inhibition in vivo at 28 µmol/kg [1]: 66.7% | Edema Inhibition, (%) [1]: 66.7 ± 2.1 % | COX-1 Inhibition, Inhibition (%) 200 μΜ (ovine COX-1): 100% | IC50 (ovine COX-1): 1.12 µM and 1.08 µM | COX-2 Inhibition, Inhibition (%) 200 μΜ (human recombinant COX-2): 0% | Cell growth by comparison with the control (untreated cells) (MRC-5 cells): ≥ 98%

COc1ccc2cc([C@H](C)C(=O)O)ccc2c1 [Naproxen, reference compound]
COX-2 Inhibition, Inhibition (%) 200 μΜ (human recombinant COX-2): 17.0 ± 2.3 %

Cc1onc(-c2ccc(Cl)o2)c1-c1ccccc1 [Compound P6]
Gastric toxicity (in words) [2]: devoid of any gastric toxicity
